Data taken from ChEMBL document CHEMBL3351644, “Tryptophanol-derived oxazolopiperidone lactams: identification of a hit compound as NMDA receptor antagonist” (Bioorg Med Chem Lett, 2014).

Target: Glutamate NMDA receptor (Rattus norvegicus) (UniProt P35439+Q00959+Q00960+Q00961+Q62645+Q8VHN2+Q9R1M7)
Test: Ratio of amantadine IC50 to compound IC50 for NMDA receptor in Wistar rat cerebellar granule neurons assessed as inhibition of NMDA-induced intracellular calcium by Fura-2 fluorescence assay
Assay type: cell-based

Work on O=C1CCC[C@@H]2OC[C@@H](Cc3c[nH]c4ccccc34)N12 yielded a Ratio IC50 of 1.5.

Target: Glutamate NMDA receptor
Test: Antagonist activity at NMDA receptor in Wistar rat cerebellar granule neurons assessed as inhibition of NMDA-induced intracellular calcium by Fura-2 fluorescence assay
Assay type: cell-based

Point of comparison: O=C1CCC[C@@H]2OC[C@H](Cc3c[nH]c4ccccc34)N12, IC50 305 µM. Against it:
- COC(=O)C[C@@H]1CC(=O)N2[C@@H](Cc3c[nH]c4ccccc34)CO[C@@H]2C1 — higher, > 450 µM
- O=C1CCC[C@H]2OC[C@H](Cc3c[nH]c4ccccc34)N12 — within 1.5-fold, 429 µM
- O=C1CCC[C@@H]2OC[C@@H](Cc3c[nH]c4ccccc34)N12 — 4.8-fold lower, 63.4 µM
- CC[C@@H]1CCC(=O)N2[C@H](Cc3c[nH]c4ccccc34)CO[C@@H]12 — higher, > 450 µM
- COC(=O)C[C@H]1CC(=O)N2[C@H](Cc3c[nH]c4ccccc34)CO[C@H]2C1 — higher, > 450 µM
- CC[C@H]1CCC(=O)N2[C@H](Cc3c[nH]c4ccccc34)CO[C@H]12 — higher, > 450 µM
- Cn1cc(C[C@@H]2CO[C@H]3CCCC(=O)N23)c2ccccc21 — higher, > 450 µM
- O=C1CCC[C@H]2OC[C@@H](Cc3c[nH]c4ccccc34)N12 — higher, > 450 µM
- CC[C@@H]1CCC(=O)N2[C@@H](Cc3c[nH]c4ccccc34)CO[C@@H]12 — higher, > 450 µM
- CC[C@H]1CCC(=O)N2[C@@H](Cc3c[nH]c4ccccc34)CO[C@H]12 — higher, > 450 µM
- Cc1ccc(S(=O)(=O)n2cc(C[C@@H]3CO[C@H]4CCCC(=O)N34)c3ccccc32)cc1 — higher, > 450 µM
- COC(=O)C[C@H]1CC(=O)N2[C@@H](Cc3c[nH]c4ccccc34)CO[C@@H]2C1 — higher, > 450 µM
- COC(=O)C[C@@H]1CC(=O)N2[C@H](Cc3c[nH]c4ccccc34)CO[C@@H]2C1 — higher, > 450 µM
- O=C1CC[C@@H]2OC[C@@H](Cc3c[nH]c4ccccc34)N12 — within 1.5-fold, 341 µM
